Assays:
Assay type in all cases: in vivo, ddY mouse
[1] = Blood pressure by tail-cuff method, Test Example 1
Protocol: The therapeutic effect of olmesartan medoxomil in Aβ injection model and the dose dependency thereof were examined according to the following experimental schedule. [Experimental Schedule]: Prior to the experiment, 8-week old male ddY mice were administered olmesartan medoxomil (0.5 mg/kg/day, 1 mg/kg/day, 3 mg/kg/day or 6 mg/kg/day) or distilled water orally for four weeks (day −28 to −1). Then, Aβ 1-40 was administered to the mice intracerebroventricularly (day 0). (Although Aβ 1-40 was administered into one of the lateral ventricles in WO 2006/059777, Aβ 1-40 was administered in Test Example 1 to both lateral ventricles with an interval of one day between two administrations. Except for this point, Aβ 1-40 administration was performed in the same manner as in WO 2006/059777.) From one week thereafter, a behavioral test to evaluate cognitive function (Morris water maze test; Morris R et al., J Neuroscience Methods 1984, 11, 47-60) was performed (day 7 to 12). As a negative control, mice which had received oral administration of distilled water for four weeks were administered Aβ 40-1 intracerebroventricularly. The administration of olmesartan medoxomil or distilled water was continued until the end of the behavioral test. Measurements were performed as described below. • Hidden platform test: A platform is placed below the water surface of a water pool 150 cm in diameter filled with white water-colored. Mice are released into the water, and the time it takes them to reach the platform is measured. This trial is performed three times a day and for five consecutive days. As they learn, mice become able to reach the platform more quickly day by day. • Visible platform test: Mice are released into the water under such conditions that they can see the platform. The time it takes them to reach the platform is measured. • Probe test: The platform is removed, and mice are released and allowed to swim freely. […] The time they spent in that quadrant is measured. • Annnulus crossing: The number of times mice crossed the platform in the probe test is counted. […]

[2] = system: Aβ injection model (Aβ 1-40 administered intracerebroventricularly); assay: Morris water maze test in Aβ injection model, Test Example 1
Protocol: The therapeutic effect of olmesartan medoxomil in Aβ injection model and the dose dependency thereof were examined according to the following experimental schedule. [Experimental Schedule]: Prior to the experiment, 8-week old male ddY mice were administered olmesartan medoxomil (0.5 mg/kg/day, 1 mg/kg/day, 3 mg/kg/day or 6 mg/kg/day) or distilled water orally for four weeks (day −28 to −1). Then, Aβ 1-40 was administered to the mice intracerebroventricularly (day 0). (Although Aβ 1-40 was administered into one of the lateral ventricles in WO 2006/059777, Aβ 1-40 was administered in Test Example 1 to both lateral ventricles with an interval of one day between two administrations. Except for this point, Aβ 1-40 administration was performed in the same manner as in WO 2006/059777.) From one week thereafter, a behavioral test to evaluate cognitive function (Morris water maze test; Morris R et al., J Neuroscience Methods 1984, 11, 47-60) was performed (day 7 to 12). As a negative control, mice which had received oral administration of distilled water for four weeks were administered Aβ 40-1 intracerebroventricularly. The administration of olmesartan medoxomil or distilled water was continued until the end of the behavioral test. Measurements were performed as described below. • Hidden platform test: A platform is placed below the water surface of a water pool 150 cm in diameter filled with white water-colored. Mice are released into the water, and the time it takes them to reach the platform is measured. This trial is performed three times a day and for five consecutive days. As they learn, mice become able to reach the platform more quickly day by day. • Visible platform test: Mice are released into the water under such conditions that they can see the platform. The time it takes them to reach the platform is measured. • Probe test: The platform is removed, and mice are released and allowed to swim freely. Those mice with good learning/memory swim in the quadrant where the platform was located searching for the platform. The time they spent in that quadrant is measured. • Annnulus crossing: The number of times mice crossed the platform in the probe test is counted.

[3] = Blood pressure, Test Example 2 (hydralazine as hypotensive control); conditions: after 4-week oral administration (day −1); olmesartan medoxomil 1 mg/kg/day, hydralazine 30 mg/kg/day
Protocol: Further, assessment of blood pressure was performed by the tail-cuff method (using a sphygmomanometer wound around the mouse tail) (Bunag R D, J Lab Clin Med. 1971, 78, 957-62) immediately before the start of administration of olmesartan medoxomil or distilled water (day −30), immediately before (day −1) and immediately after (day 2) the Aβ intracerebroventricular administration, and after completion of the behavioral test (day 14) (see FIG. 1). […] The dose of olmesartan medoxomil was set at a low level of 1 mg/kg/day in view of the experimental results of Test Example 1. […] The number of successive interceptions by the subject of the two adjoining beams on each bank is counted as locomotion score. • Long-term retention: On day 12 after the completion of the hidden platform test as a water maze test, mice are released into the water and the time it takes them to reach the platform is measured. • Working memory task: The platform is transferred and fixed at a new place. Mice are given four consecutive trials at intervals of as short as 20 seconds, and the time it takes them to reach the platform is measured. […] In order to eliminate this influence, swimming speed is measured.

[4] = 0.5 mg/kg/day oral, versus Aβ 1-40 administration group
[5] = 1.0 mg/kg/day oral, versus Aβ 1-40 administration group

CCCc1nc(C(C)(C)O)c(C(=O)OCc2oc(=O)oc2C)n1Cc1ccc(-c2ccccc2-c2nnn[nH]2)cc1 [olmesartan medoxomil, (5-methyl-2-oxo-1,3-dioxolen-4-yl)methyl 4-(1-hydroxy-1-methylethyl)-2-propyl-1-[4-[2-(tetrazol-5-yl)phenyl]phenyl]methyl-imidazole-5-carboxylate]
blood pressure compared to the distilled water administration group ([1]; after 4-week oral administration (day −1), olmesartan medoxomil administration groups (0.5, 1, 3, 6 mg/kg/day)): significantly lowered | blood pressure ([1]; immediately after Aβ administration (day 2) and after completion of the behavioral test (day 14)): A similar tendency was observed | blood pressure ([1]; lowest dose 0.5 mg/kg/day oral, after 4-week administration (day −1)): significant lowering | hidden platform test: escape latency (impairment in spatial memory and learning ability) [2, 4]: improved significantly | probe test: time spent in the target quadrant [2, 4]: significantly improved | hidden platform test: escape latency (impairment in spatial memory and learning ability) [2, 5]: improved significantly | number of annulus crossings [2, 5]: significantly improved | probe test: time spent in the target quadrant [2, 5]: significantly improved | hidden platform test: escape latency (impairment in spatial memory and learning ability) ([2]; 3.0 mg/kg/day oral, versus Aβ 1-40 administration group): improved significantly | improvement of impairment in spatial memory and learning evoked by Aβ 1-40 ([2]; high dose groups (3-6 mg/kg/day)): not observed | improvement of impairment in spatial memory and learning evoked by Aβ 1-40 ([2]; low dose groups (0.5-1 mg/kg/day)): observed | cognitive impairment (spatial memory and learning) in Morris water maze test, overall ([2]; oral administration for four weeks in advance of Aβ 1-40): significantly improved | blood pressure compared to distilled water administration group [3]: lowered significantly
